Results reported in patent US10463664B2, “Inhibitors of HSV nucleotidyl transferases and uses therefor” (Saint Louis University, priority 2013, dated 2019).
Values joined by “and” are separate entries in the source; they are usually repeats but may differ in a detail not shown here. Equal entries are not always repeated.

How the values were obtained:
HSV-1 [1] = assay: HSV-1 replication inhibition in primary human foreskin fibroblasts; type: cell-based, herpes simplex virus 1; conditions: HFF cells; for Replication inhibition HSV-1 5 μM / Replication inhibition HSV-1 50 μM: relative to DMSO-treated control
Experimental: (§1) Anti-HSV-1 and -HSV-2 Replication Assay. Compounds to be screened were diluted in PBS supplemented to contain 2% newborn calf serum and 1% glutamine, and added in 100 μL, volume to confluent cell monolayers in 24-well cluster plates. Immediately thereafter HSV-1 and HSV-2, diluted in the supplemented PBS medium, were added to the wells in 50 μl volume such that the final concentration of compound was 50 μM and 5 μM and the multiplicity of infection was 0.1. The plates were incubated at 37° C. for 1 hour and then virus-containing inoculum was removed and the wells were washed once in PBS. Compounds, diluted to 50 μM and 5 μM in DMEM supplemented to contain 2% newborn calf serum and 1% each penicillin/streptomycin, were added at 0.5 mL/well. Plates were incubated at 37° C. an additional 23 hr, and then the plates were visually inspected through a phase contrast microscope for cytopathic effect, and for toxic effect. […] The entire contents of each well were collected by scraping. Samples were frozen at −80° C., and then subsequently thawed, sonicated, and infectious virus titer was determined by standard plaque assay on Vero cell monolayers. Because the compounds were dissolved at 10 mM in 100% DMSO, equivalent dilutions of DMSO were added to additional wells as a control for effects of the diluent. Each experiment was repeated once. EC50 values were determined as above except that serial dilutions of the compound to be tested were prepared starting at 50 μM. The inhibitory values were calculated by non-linear curve-fitting in GraphPad Prism.
(§2) Inhibition of viral replication was next assessed in human foreskin fibroblasts (HFF) to determine whether NTS inhibitors could block HSV-1 and HSV-2 replication in a physiologically relevant, primary human cell type. […] Viral yields 24 hours post-infection were measured by plaque assay.

HFFs = assay: Neutral red cytotoxicity assay in uninfected HFFs (14 day, with CPE assay); type: cell-based, human; conditions: 14 days
Experimental: Anti-HCMV CPE inhibition and cytotoxicity assays. HFFs were infected with HCMV strain AD169 in the presence of serial dilutions of the compounds from 0.0192 to 60 μM. Fourteen days later the monolayers were stained with crystal violet, and retained cell density was quantified using a multiplate autoreader (BioTek). Cytotoxicity was measured the same way, except that the cells were uninfected and neutral red internalization by viable cells was measured.
Antiviral efficacy against HCMV. The ability of select HSV inhibitors to inhibit replication of another major human herpesvirus pathogen, human cytomegalovirus (HCMV) (65) was tested. This was based on the inhibitors strong suppression of HSV-1 and HSV-2 and the prediction that other members of the herpesvirus family would be sensitive to NTS inhibitors due to their shared DNA replication mechanism. Compounds #41, 46, 49, 55, 56, and 59 and the FDA-approved anti-HCMV drug ganciclovir were evaluated with crystal violet CPE and neutral red toxicity assays in HFFs. HFFs were infected with HCMV in the presence of serial dilutions of the compounds that were most inhibitory for HSVs. After 14 days the monolayers were stained and cell density was determined by OD reading. Compound cytotoxicity for uninfected cells was determined in the same manner except that neutral red uptake by viable cells was measured. […] The TI values for the four NTS inhibitors of HCMV ranged from 4 for compound #41 to 38 for #56. Therefore, NTS inhibitors can suppress HCMV replication in addition to inhibiting the HSVs.

HSV-1 [2] = assay: Anti-HSV-1 replication assay in Vero cells, titer by plaque assay; type: cell-based, herpes simplex virus 1; conditions: for Anti-HSV-1 Log10 suppression 50 μM / EC50 / Anti-HSV-1 Log10 suppression 5 μM: moi 0.1, 24 h; for Anti-HSV-1 Log10 suppression 50 μM / Anti-HSV-1 Log10 suppression 5 μM: relative to DMSO; for Control of HSV-1 replication after high moi infection: moi 5, 5 μM
How it was run: (§3)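 Well lysates titered by plaque assay on Vero cells versus DMSO controls; EC50 by non-linear fit from serial dilutions starting at 50 μM.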

human RNaseH1 = biological target: T1, human RNaseH1 (Homo sapiens, UniProt O60930); assay: Biochemical inhibition of human RNaseH1 (oligonucleotide-directed RNA cleavage assay); conditions: for Anti-Human RNaseH1: compounds at 60, 20 or 10 μM
T1 construct: hexahistidine; made in house; host or cells: E. coli
T1 sequence (O60930 1-286): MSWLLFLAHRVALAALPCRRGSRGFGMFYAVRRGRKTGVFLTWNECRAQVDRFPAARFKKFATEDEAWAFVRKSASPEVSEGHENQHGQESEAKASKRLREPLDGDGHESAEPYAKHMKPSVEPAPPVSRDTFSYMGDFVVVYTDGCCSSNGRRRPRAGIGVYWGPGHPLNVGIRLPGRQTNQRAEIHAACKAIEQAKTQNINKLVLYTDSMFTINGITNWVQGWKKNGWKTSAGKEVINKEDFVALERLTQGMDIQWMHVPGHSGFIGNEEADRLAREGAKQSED
How it was run: (§4)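 A DNA oligonucleotide was annealed to internally ^32P-labeled RNA, and the heteroduplex was incubated with enzyme alongside compounds at 60, 20 or 10 μM. Cleavage products were resolved by electrophoresis and detected by autoradiography, then quantified against DMSO vehicle reactions.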

HSV-2 [3] = assay: Anti-HSV-2 replication assay in Vero cells, titer by plaque assay; type: cell-based, herpes simplex virus 2; conditions: for Anti-HSV-2 Log10 suppression 50 μM / Anti-HSV-2 Log10 suppression 5 μM: relative to DMSO; for Control of HSV-2 replication after high moi infection: moi 5, 5 μM, 24 h
How it was run: as §3

HBV RNaseH = biological target: T2, HBV RNaseH (Hepatitis B virus genotype A2 subtype adw2, UniProt P03159); assay: Biochemical inhibition of HBV RNaseH (oligonucleotide-directed RNA cleavage assay); conditions: compounds at 60, 20 or 10 μM
T2 construct: One of the inventors recently produced active recombinant HBV RNase H; hexahistidine; made in house; host or cells: E. coli
How it was run: as §4

HSV-2 [4] = assay: HSV-2 replication inhibition in primary human foreskin fibroblasts; type: cell-based, herpes simplex virus 2; conditions: for EC50 / Replication inhibition HSV-2 5 μM / Replication inhibition HSV-2 50 μM: HFF cells; for Replication inhibition HSV-2 5 μM / Replication inhibition HSV-2 50 μM: relative to DMSO-treated control
Experimental: as §1, §2

[5] = Human alphaherpesvirus 1, Vero, 24 h

T2 sequence (P03159 693-845): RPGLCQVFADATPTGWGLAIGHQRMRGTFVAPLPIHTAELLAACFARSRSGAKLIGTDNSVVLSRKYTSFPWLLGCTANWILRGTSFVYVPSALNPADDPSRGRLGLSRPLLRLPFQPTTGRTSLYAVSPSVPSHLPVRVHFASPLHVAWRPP

| SMILES | EC50 (HSV-1 [1]) | Replication inhibition HSV-1 5 μM (HSV-1 [1]) | Replication inhibition HSV-1 50 μM (HSV-1 [1]) | CC50 (HFFs) | Anti-HSV-1 Log10 suppression 50 μM (HSV-1 [2]) | EC50 (HSV-1 [2]) | Control of HSV-1 replication after high moi infection (HSV-1 [2]; 24 h) | Anti-Human RNaseH1 (human RNaseH1) | Anti-HSV-2 Log10 suppression 50 μM (HSV-2 [3]; moi 0.1, 24 h) | EC50 (HSV-2 [3]; moi 0.1, 24 h) | Control of HSV-2 replication after high moi infection (HSV-2 [3]) | Anti-HBV RNaseH (HBV RNaseH) | EC50 (HSV-2 [4]) | Replication inhibition HSV-2 5 μM (HSV-2 [4]; 5 μM) | Replication inhibition HSV-2 50 μM (HSV-2 [4]) | Anti-HSV-1 Log10 suppression 5 μM (HSV-1 [2]; 5 μM) | Anti-HSV-2 Log10 suppression 5 μM (HSV-2 [3]; 5 μM, moi 0.1, 24 h) | also measured |
| --- | --- | --- | --- | --- | --- | --- | --- | --- | --- | --- | --- | --- | --- | --- | --- | --- | --- | --- |
| CC(=O)NC(CCc1ccc(Cl)c(Cl)c1)c1cccc(O)c(=O)c1 (stereo not shown) [Compound 55] | 2810 nM | 4.99 log10 | 6.17 log10 | > 60000 nM | 5.04 log10 | 420 nM | efficiently controlled virus replication | + (inhibition at 60 μM) | 5.06 log10 | 1070 nM | efficiently controlled virus replication | + (inhibition at 60 μM) | 1670 nM | 3.94 log10 | 6.55 log10 |  |  |  |
| Cc1cc(C2CCCCC2)n(O)c(=O)c1 [Compound 41, Ciclopirox, reference compound] |  | 5.06 log10 | 5.57 log10 |  | 5.23 log10 |  |  | + (inhibition at 60 μM) | 5.25 log10 |  |  | − (no inhibition at 60 μM) |  | 5.21 log10 | 4.97 log10 |  |  | EC50 (HSV-1 [1]; Human alphaherpesvirus 1): 140 nM; CC50, neutral red (HFFs): measurable toxicity; EC50 (HSV-1 [2]; [5]): 270 nM; Inhibition of HSV-1 replication (in words) (HSV-1 [2]; primary screening): strong inhibitor; EC50 (HSV-2 [3]; Human alphaherpesvirus 2, moi 0.1, 24 h): 450 nM; Inhibition of HSV-2 replication (in words) (HSV-2 [3]; primary screening): strong inhibitor; Suppression of HSV-2 replication, ciclopirox versus its salt (HSV-2 [4]; HFFs, various concentrations, 24 hours): equivalent extent; EC50 (HSV-2 [4]; Human alphaherpesvirus 2): 1000 nM |
| CCOc1ccc(-c2c3cc(O)c(=O)cc-3oc3cc(O)c(O)cc23)cc1 [Compound 30] | 320 nM | 3.22 log10 | 5.23 log10 |  | 4.02 log10 | 5930 nM and 4200 nM |  | +++ (inhibition at 10 μM) | 4.55 log10 | 3930 nM |  | +++ (inhibition at 10 μM) | 520 nM | 2.04 log10 | 6.68 log10 | 1.39 log10 | 3.69 log10 | Concentration giving inhibition of purified human RNaseH 1 (human RNaseH1): < 60 µM; Fold more active against HSV-2 than HSV-1 (HSV-2 [3]; 5 μM): > 100 fold; Fold less effective inhibition of HSV-2 in HFF cells than in Vero cells (HSV-2 [4]; 5 μM): ~45 fold |
| Nc1nc2c(ncn2COCCO)c(=O)[nH]1 [ACV, Acyclovir, reference compound] |  | 5.25 log10 | 6.69 log10 |  | 5.85 log10 |  | efficiently controlled virus replication | − (no inhibition at 60 μM) | 5.25 log10 |  | efficiently controlled virus replication | − (no inhibition at 60 μM) |  | 4.01 log10 | 6.27 log10 | 4.49 log10 | 3.91 log10 | EC50 (HSV-1 [1]; Human alphaherpesvirus 1): 120 nM; EC50 (HSV-1 [2]; [5]): 210 nM; EC50 (HSV-2 [4]; Human alphaherpesvirus 2): 120 nM |
| CC(C)c1ccc(O)c(=O)c(O)c1 [Compound 46, Beta-thujaplicinol] | 970 nM | 5.83 log10 | 6.39 log10 | > 60000 nM | 4.81 log10 | 1940 nM | efficiently controlled virus replication | + (inhibition at 60 μM) | 5.12 log10 | 1690 nM | efficiently controlled virus replication | +++ (inhibition at 10 μM) | 380 nM | 5.17 log10 | 5.83 log10 |  |  |  |
| CC(C)=CCc1ccc(O)c(=O)cc1C(C)C [Compound 49, Nootkatin] | 740 nM | 5.79 log10 | 6.27 log10 | > 60000 nM | 4.72 log10 | 240 nM |  | − (no inhibition at 60 μM) | 5.05 log10 | 190 nM and 220 nM |  | − (no inhibition at 60 μM) | 1230 nM | 5.47 log10 | 5.98 log10 |  |  |  |
| C=C(C)C1CCc2c(c(C)cc(O)c(=O)c2O)C1 (stereo not shown) [Compound 56, Manicol] | 240 nM | 5.72 log10 | 6.39 log10 | 38400 nM | 5.82 log10 | 350 nM |  | − (no inhibition at 60 μM) | 5.79 log10 | 580 nM |  | +++ (inhibition at 10 μM) | 550 nM | 5.93 log10 | 6.80 log10 | 5.14 log10 | 5.95 log10 | CC50, neutral red (HFFs): measurable toxicity; HSV-1 replication inhibition, fold (HSV-1 [2]; 5 μM): 138,000 fold; HSV-2 replication inhibition, fold (HSV-2 [3]; 5 μM): 891,000 fold |
